Assay results from BigSolDB 2.1.

NC(N)=S
Conditions	solubility (mole fraction)
in ethanol, 292.65 K	0.0224
in ethanol, 293.85 K	0.0227
in ethanol, 299.45 K	0.0256
in ethanol, 302.75 K	0.0281
in ethanol, 305.85 K	0.0295
in ethanol, 308.95 K	0.0324
in ethanol, 309.4 K	0.0331
in ethanol, 311.65 K	0.0345
in ethanol, 312.55 K	0.035
in ethanol, 312.75 K	0.0353
in ethanol, 313.9 K	0.0364
in ethanol, 314.35 K	0.0375
in ethanol, 315.55 K	0.0384
in ethanol, 316.4 K	0.0386
in ethanol, 318.2 K	0.0399
in ethanol, 320 K	0.0422
in methanol, 298.65 K	0.0534
in methanol, 301.45 K	0.0565
in methanol, 304.35 K	0.0606
in methanol, 307.85 K	0.0643
in methanol, 309.05 K	0.0667
in methanol, 311.25 K	0.0702
in methanol, 314.55 K	0.0761
in methanol, 319.45 K	0.0821
in methanol, 321.25 K	0.0872
